Where a name gives a salt, the structure may show the parent alone. Read-outs that look alike come from different tables or passages of the source.
Experiments:
[1] = biological target: T1, cloned human 5-HT2A receptor (Homo sapiens, UniProt P28223); assay: Determination of Ki at 5-HT2A receptor (radioligand binding, [3H]-Ketanserine); conditions: CHO-K1 recombinant cells; [3H]-Ketanserine 1.25 nM; read-out: Ki h5-HT2A
T1 construct: expressed in transfected cells; host or cells: CHO-K1
Procedure: (§1) Compounds were tested according to the following procedure.
• Receptor source: Recombinant mammalian cells (CHO-K1) • Radioligand: [^3H]-Ketanserine (41.9 Ci/mmol) • Final ligand concentration: 1.25 nM • Non-specific determinant: 0.1 mM 1-Napthyl piperazine (1-NP) • Reference compound: 1-Napthyl piperazine (1-NP) • Positive control: 1-Napthyl piperazine (1-NP) Incubation Conditions:
Reactions were carried out in buffer with pH 7.4 containing 50 mM Tris-HCl, 4 mM CaCl2), 0.1% Ascorbic acid for 1 h at r.t. The reaction was terminated by rapid vacuum filtration onto the glass fiber filters. Radioactivity trapped onto the filters was determined and compared to the control values in order to ascertain any interactions of the test compound(s) with cloned human 5-HT2A receptor binding site.

[2] = biological target: T2, cloned human 5-HT1A receptor (Homo sapiens, UniProt P08908); assay: Determination of Ki at 5-HT1A receptor (radioligand binding, [3H]-8-Hydroxy DPAT); conditions: HEK293-EBNA recombinant cells; [3H]-8-Hydroxy DPAT 0.8 nM; read-out: Ki h5-HT1A
T2 construct: expressed in transfected cells; host or cells: HEK293-EBNA
T2 sequence (P08908 1-422): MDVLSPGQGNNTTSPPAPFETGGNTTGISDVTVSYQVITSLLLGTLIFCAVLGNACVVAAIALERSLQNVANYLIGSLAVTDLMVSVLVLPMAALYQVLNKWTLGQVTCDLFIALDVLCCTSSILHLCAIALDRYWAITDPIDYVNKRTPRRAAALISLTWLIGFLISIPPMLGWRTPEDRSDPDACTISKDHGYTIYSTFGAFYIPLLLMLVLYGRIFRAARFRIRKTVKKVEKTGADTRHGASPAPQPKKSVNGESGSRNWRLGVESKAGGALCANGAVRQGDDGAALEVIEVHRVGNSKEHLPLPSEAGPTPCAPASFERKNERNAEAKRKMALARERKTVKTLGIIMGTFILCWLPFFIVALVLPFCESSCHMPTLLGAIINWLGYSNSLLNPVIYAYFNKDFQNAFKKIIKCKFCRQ
Procedure: as §1
• Receptor source: Recombinant mammalian cells (HEK293-EBNA) • Radioligand: [^3H]-8-Hydroxy DPAT (200 Ci/mmol) • Final ligand concentration: 0.8 nM • Non-specific determinant: 0.1 mM U92016A • Reference compound: U92016A • Positive control: U92016A Incubation Conditions:
Reactions were carried out in buffer with pH 7.4 containing 50 mM Tris-HCl, 0.5 mM EDTA, 10 mM MgSO4, 0.1% Ascorbic acid for 2 h at r.t. The reaction was terminated by rapid vacuum filtration onto the glass fiber filters. Radioactivity trapped onto the filters was determined and compared to the control values in order to ascertain any interactions of the test compound(s) with cloned human 5-HT1A receptor binding site.

[3] = biological target: T3, hD2S (cloned human dopamine D2S receptor) (Homo sapiens, UniProt P14416); assay: Determination of Ki at D2S receptor (radioligand binding, [3H]-Raclopride); conditions: CHO-K1 recombinant cells; [3H]-Raclopride 4 nM; read-out: Ki hD2S
T3 construct: expressed in transfected cells; host or cells: CHO-K1
Procedure: as §1
• Receptor source: Recombinant mammalian cells (CHO-K1) • Radioligand: [^3H]-Raclopride (80.8 Ci/mmol) • Final ligand concentration: 4 nM • Non-specific determinant: 0.1 mM Haloperidol • Reference compound: Haloperidol • Positive control: Haloperidol Incubation Conditions:
Reactions were carried out in buffer with pH 7.4 containing 50 mM Tris-HCl, 120 mM NaCl, 5 mM KCl, 5 mM MgCl2, 1 mM EDTA for 2 h at r.t. The reaction was terminated by rapid vacuum filtration onto the glass fiber filters. Radioactivity trapped onto the filters was determined and compared to the control values in order to ascertain any interactions of the test compound(s) with cloned human dopamine […] receptor binding site.

[4] = biological target: T4, recombinant rat 5-HT7 receptor (Rattus norvegicus, UniProt P32305); assay: Determination of Kb at 5-HT7 receptor, pCRE-Luc reporter gene assay in CHO cells; format: cell-based
T4 construct: expressed in transfected cells
Procedure: A stable CHO cell line expressing recombinant rat 5-HT7 receptor and pCRE-Luc reporter system was used for cell-based assay. The assay offers a non-radioactive based approach to determine binding of a compound to GPCRs. In this specific assay, the level of intracellular cAMP which is modulated by activation or inhibition of the receptor is measured. The recombinant cells harbor luciferase reporter gene under the control of cAMP response element.
The above cells were grown in 96 well clear bottom white plates in Hams F12 medium containing 10% fetal bovine serum (FBS). Prior to the addition of compounds or standard agonist, cells were serum starved overnight. Increasing concentrations of test compound were added along with 1 μM of serotonin in Opti-MEM medium to the cells. The incubation was continued at 37° C. in CO2 incubator for 4 hours. Medium was removed and cells were washed with phosphate buffered saline. The cells were lysed and luciferase activity was measured in a Luminometer. Luminescence units were plotted against the compound concentrations using GraphPad Prism software. EC50 values of the compounds were defined as the concentration required in reducing the luciferase activity by 50%. The Kb values were calculated by feeding the concentration of agonist used in the assay and its EC50 value in the same software.

[5] = biological target: cloned human SERT receptor (Homo sapiens, UniProt P31645); assay: Determination of Ki at SERT receptor (SPA binding, [3H]-Citalopram); conditions: HEK293 recombinant cells, [3H]-Citalopram 2 nM, read-out: Ki hSERT
Procedure: as §1
• Receptor source: Recombinant mammalian cells (HEK293) • Radioligand: [^3H]-Citalopram (80.8 Ci/mmol) • Final ligand concentration: 2 nM • Non-specific determinant: 0.1 mM Venlafaxine • Reference compound: Venlafaxine • Positive control: Venlafaxine Incubation Conditions:
Reactions were carried out in buffer with pH 7.4 containing 50 mM Tris-HCl, 150 mM NaCl, 5 mM KCl and scintillation proximity assay (SPA) beads (0.1 mg/well) for 3 h at r.t. Radioactivity proximal to SPA beads was determined by scintillation proximity assay and compared to the control values in order to ascertain any interactions of the test compound(s) with cloned human SERT receptor binding site.
Reference: Journal of Pharmacology and Experimental Therapeutics, 1987, 242 (1), 364-371.

[6] = biological target: T4, recombinant rat 5-HT7 receptor; assay: Determination of Kb at 5-HT7 receptor, pCRE-Luc reporter gene assay in CHO cells; format: cell-based; remark: listed apart in the source
[7] = Rodent brain penetration study; format: in vivo; conditions: rat, brain/plasma, po, fed male Wistar rats, 3 mg/kg p.o., mean ± S.D, n = 3, read-out: Rat Brain Penetration (Cbrain/Cplasma) at 3 mg/kg, p.o. @ 1 h
Procedure: Male Wistar rats (260±40 g) were used as experimental animals. Three animals were housed in each cage. Animals were given water and food ad libitum throughout the experiment and maintained on a 12 h light/dark cycle.
Brain penetration was determined in discrete manner in rats. One day prior to dosing, male Wistar rats were acclimatized and randomly grouped according to their body weight. At each time point (0.50, 1 and 2 h), n=3 animals were used.
The test compounds were suitably preformulated and administered orally at (free base equivalent) 3 mg/kg. Blood samples were removed via cardiac puncture under isoflurane anesthesia. The animals were sacrificed to collect brain tissue. Plasma was separated and brain samples were homogenized. Plasma and brain homogenates were stored frozen at −20° C. until analysis. The concentrations of the test compounds in plasma and brain were determined using LC-MS/MS method.
The test compounds were quantified in plasma and brain homogenate by qualified LC-MS/MS method using suitable extraction technique in the calibration range of 1-500 ng/mL. Study samples were analyzed using calibration samples in the batch and quality control samples spread across the batch. Extent of brain-plasma ratio (Cbrain/Cplasma) was calculated.

Male Sprague Dawley rats = assay: Amphetamine-induced hyperlocomotion; format: in vivo, rat; conditions: 3 mg/kg, p.o., dosed 30 min prior to trial
Procedure: Male Sprague Dawley rats of 230-280 g body weight were used. Rats were weighed and randomized according to their body weights. Following day, the rats were brought to the laboratory 1 h prior to test. In the morning session, rats were habituated to open field arena for 15 min. Test compound/vehicle and amphetamine/vehicle were administered 30 min prior to the trial. After the post-dose interval, rats were placed in the open field and locomotion was recorded for a period of 15 min. Amphetamine-induced hyperlocomotion models positive symptoms of schizophrenia.

[8] = Rodent pharmacokinetic study; format: in vivo, Male Wistar rats; conditions: rat, plasma, mean ± S.D, n = 3
Procedure: Male Wistar rats (260±50 g) were used as experimental animals. Animals were housed individually in polypropylene cage. Two days prior to study, male Wistar rats were anesthetized with isoflurane for surgical placement of jugular vein catheter. Rats were randomly divided for oral (3 mg/kg) and intravenous (1 mg/kg) dosing (n=3/group) and fasted overnight before oral dosing (p.o.). However, food and water were provided ad libitum to the rats allocated for intravenous dosing.
At pre-determined time points, blood samples were collected through jugular vein and replenished with an equivalent volume of normal saline. Collected blood was transferred into a labeled eppendorf tube containing 10 μL of heparin as an anticoagulant. Typically blood samples were collected at 0.08, 0.25, 0.5, 1, 2, 4, 6, 8, and 24 h post dose. Blood samples were centrifuged at 4000 rpm for 10 min. Plasma was separated and stored frozen at −80° C. until analysis. The concentrations of the test compounds were quantified in plasma by qualified LC-MS/MS method using suitable extraction technique. The test compounds were quantified in the calibration range around 1-1000 ng/mL in plasma. Study samples were analyzed using calibration samples in the batch and quality control samples spread across the batch.
Pharmacokinetic parameters Cmax, AUCt, t1/2. Clearance and Bioavailability (F) were calculated using standard non-compartmental model by using Phoenix WinNonlin 6.0.4 version software package.

Rats = assay: Tardive dyskinesia test (vacuous chewing movements and tongue protrusions); format: in vivo, rat; conditions: 38 mg/kg, i.m. single dose, scored weekly for 4 weeks
Procedure: Rats weighing 200-230 g were acclimatized to the plexiglass observation cages (30×20×30 cm) equipped with mirrors for 5 min. After acclimatization, basal vacuous chewing movements (VCMs) and tongue protrusions (TPs) of the rats were quantified manually for 5 min. Rats were randomized based on the basal readings. Rats received a single dose of sesame oil (vehicle treatment) or haloperidol decanoate (38 mg/kg, i.m. positive control). Example-2, 10 mg/kg, p.o. ([…]) was administered for 4 weeks. VCMs and TPs were scored on weekly basis for 4 weeks. Tardive dyskinesia is a side effect of antipsychotic medications.

dopamine receptor = assay: Reserpine-induced dihydroxyphenylalanine (DOPA) accumulation assay in rat striatum; format: in vivo; conditions: apomorphine 0.1 mg/kg, s.c., rat, reserpine 5.0 mg/kg
Procedure: Reserpine (5.0 mg/kg, s.c.) was injected, after which rats were fasted for 18 h before sacrifice. […] Each rat was sacrificed and the striatum was dissected out of the whole brain on ice. Each striatum was weighed and homogenized individually in buffer containing 0.01 N hydrochloric acid and 0.2 mg/ml L-cysteine. Supernatants were subjected for quantification of DOPA using HPLC coupled to electrochemical detector.

[9] = intravenous (bolus) 1 mg/kg, male Wistar rats
[10] = oral (gavage) 3 mg/kg, fasted male Wistar rats

T4 sequence (P32305 whole entry): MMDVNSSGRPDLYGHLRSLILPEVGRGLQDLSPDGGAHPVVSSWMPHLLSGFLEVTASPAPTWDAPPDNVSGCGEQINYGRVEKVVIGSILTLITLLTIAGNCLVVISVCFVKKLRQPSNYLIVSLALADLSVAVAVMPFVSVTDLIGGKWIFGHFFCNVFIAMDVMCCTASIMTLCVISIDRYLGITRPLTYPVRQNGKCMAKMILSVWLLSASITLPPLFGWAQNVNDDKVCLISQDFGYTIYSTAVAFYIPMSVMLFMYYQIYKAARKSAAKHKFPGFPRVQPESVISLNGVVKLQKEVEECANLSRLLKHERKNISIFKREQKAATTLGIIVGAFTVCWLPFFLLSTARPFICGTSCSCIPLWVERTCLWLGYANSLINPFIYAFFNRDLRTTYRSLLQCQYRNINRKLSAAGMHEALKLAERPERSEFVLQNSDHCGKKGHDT
Chain of cloned human SERT receptor (P31645 whole entry): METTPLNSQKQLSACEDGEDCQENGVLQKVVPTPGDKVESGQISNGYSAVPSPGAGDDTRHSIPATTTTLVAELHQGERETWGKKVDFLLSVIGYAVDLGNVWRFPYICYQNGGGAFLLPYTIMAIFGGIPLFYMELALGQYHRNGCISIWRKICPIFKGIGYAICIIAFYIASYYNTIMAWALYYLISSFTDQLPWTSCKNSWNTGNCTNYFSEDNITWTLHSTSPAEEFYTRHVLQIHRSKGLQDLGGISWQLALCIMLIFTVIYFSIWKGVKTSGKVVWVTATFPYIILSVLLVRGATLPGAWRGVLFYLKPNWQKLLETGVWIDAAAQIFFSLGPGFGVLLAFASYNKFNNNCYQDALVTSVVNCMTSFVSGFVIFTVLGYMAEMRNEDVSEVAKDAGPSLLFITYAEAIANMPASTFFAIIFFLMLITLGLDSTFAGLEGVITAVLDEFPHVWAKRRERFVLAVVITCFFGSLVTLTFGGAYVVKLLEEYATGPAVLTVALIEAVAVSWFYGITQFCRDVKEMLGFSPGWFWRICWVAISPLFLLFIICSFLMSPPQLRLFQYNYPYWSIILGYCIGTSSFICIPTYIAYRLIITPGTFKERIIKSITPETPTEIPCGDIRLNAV
T3 sequence (P14416 1-414 isoform P14416-2): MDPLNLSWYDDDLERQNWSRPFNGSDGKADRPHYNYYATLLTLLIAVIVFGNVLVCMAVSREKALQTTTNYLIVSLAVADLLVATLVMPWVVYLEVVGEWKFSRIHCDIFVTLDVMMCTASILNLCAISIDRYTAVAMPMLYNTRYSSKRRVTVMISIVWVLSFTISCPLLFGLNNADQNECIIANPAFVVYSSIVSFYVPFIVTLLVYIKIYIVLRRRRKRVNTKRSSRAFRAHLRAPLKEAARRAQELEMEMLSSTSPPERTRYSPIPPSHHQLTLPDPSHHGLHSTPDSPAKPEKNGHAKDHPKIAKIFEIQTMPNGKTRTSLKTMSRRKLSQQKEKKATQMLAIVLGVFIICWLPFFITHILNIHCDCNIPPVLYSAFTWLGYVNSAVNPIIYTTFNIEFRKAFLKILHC
T1 sequence (P28223 whole entry): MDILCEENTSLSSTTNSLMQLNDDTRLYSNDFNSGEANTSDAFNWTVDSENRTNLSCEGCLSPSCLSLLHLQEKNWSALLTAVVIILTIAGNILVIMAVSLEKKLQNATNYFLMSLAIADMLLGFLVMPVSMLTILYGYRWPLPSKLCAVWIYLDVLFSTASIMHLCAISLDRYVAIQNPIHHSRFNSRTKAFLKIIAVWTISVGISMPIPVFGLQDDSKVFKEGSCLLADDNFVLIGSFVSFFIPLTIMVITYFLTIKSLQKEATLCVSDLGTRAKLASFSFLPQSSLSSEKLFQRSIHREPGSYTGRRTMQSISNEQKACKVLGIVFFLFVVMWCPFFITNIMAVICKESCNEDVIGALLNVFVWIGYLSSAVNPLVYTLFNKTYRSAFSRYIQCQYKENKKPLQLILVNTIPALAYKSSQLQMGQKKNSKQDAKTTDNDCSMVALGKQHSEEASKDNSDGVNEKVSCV

O=C1C[C@@H]2COCCN2C(=O)N1CCCCN1CCN(c2nsc3ccccc23)CC1 [Example 18, 7-[4-(4-Benzo[d]isothiazol-3-yl-piperazin-1-yl)-butyl]-tetrahydro-pyrimido[6,1-c][1,4]oxazine-6,8-dione oxalate]
Ki [1]: 4.2 nM | Ki [2]: 0.8 nM | Ki [3]: 6.5 nM | antagonistic activity at rat recombinant 5-HT7 receptor ([4]; pCRE-Luc reporter gene assay): antagonistic activity | Kb ([4]; rat receptor, with 1 μM serotonin, luciferase readout, read-out: Kb at 5-HT7 receptor): 1 nM | Ki [5]: 1.74 µM | agonist activity at rat recombinant 5-HT7 receptor [6]: no detectable agonist activity

O=C1C[C@H]2CCCN2C(=O)N1C[C@H]1CCCC[C@H]1CN1CCN(c2nsc3ccccc23)CC1 [Example 27, 2-[2-(4-Benzo[d]isothiazol-3-yl-piperazin-1-ylmethyl)-cyclohexylmethyl]-tetrahydro-pyrrolo[1,2-c]pyrimidine-1,3-dione oxalate]
Ki [1]: 2 nM | Kp at 1 h [7]: 1.21 ± 0.13 | Ki [2]: 4.7 nM | Ki [3]: 0.2 nM | Ki ([5]; cells printed in μM): > 10 µM | Inference, amphetamine antagonism (hyperlocomotion) (Male Sprague Dawley rats): Active | AUC(0-t) [8, 9]: 0.36 ± 0.01 µg·h/mL | clearance [8, 9]: 2.7 ± 0.078 L/h/kg | half-life [8, 9]: 2.4 ± 0.4 h | bioavailability ([8]; oral 3 mg/kg vs intravenous 1 mg/kg, male Wistar rats, read-out: F (Bioavailability)): 16 ± 8% | AUC(0-t) [8, 10]: 0.173 ± 0.092 µg·h/mL | Cmax [8, 10]: 0.186 ± 0.109 µg/mL | half-life [8, 10]: 1.8 ± 0.1 h

CCCCCCCCCC(=O)OC1(c2ccc(Cl)cc2)CCN(CCCC(=O)c2ccc(F)cc2)CC1 [Haloperidol decanoate, reference compound]
Inference, tardive dyskinesia test (VCMs and TPs vs vehicle group) (Rats): Increased number of VCMs and TPs

CN1CCc2cccc3c2[C@H]1Cc1ccc(O)c(O)c1-3 [apomorphine, reference compound]
change in reserpine-induced DOPA accumulation in striatum (dopamine receptor): significant decrease

Reference: patent US12391698B2, “Substituted piperidines and piperazines and methods for the treatment of CNS disorders” (SUVEN LIFE SCIENCES LIMITED, priority 2022, dated 2025)
